Results reported in patent publication US20030175216A1, “Oral antimicrobial and anti-odor compositions” (Innoscent LTD., priority 2001, published 2003).

Tests used:
[1] = test system: odor formation in freshly-taken morning saliva; assay: Inhibition of in vitro odor formation by higher alcohols (saliva in decarboxylase medium); format: cell-based; conditions: for effect on in vitro odor formation (summary): 10-50 μl of 1% solution
Procedure: A series of test tubes were prepared, each containing 5 ml of decarboxylase medium (0.5% peptone, 0.3% yeast extract, 0.1% dextrose and 0.02% bromocresol purple). […] The tubes were incubated at 37° C. for three days. Following incubation, the odor was determined by a panel of odor judges, using the following semi-quantitative scale 0=no odor 1=very slight odor […] The higher alcohols tested were alkanols of chain length C8, C9, C10, C11, C12, C14, C16 and C18.

[2] = test system: bacteria and yeast tested; assay: Agar plate growth inhibition, summary statements over the test microorganisms; format: cell-based; conditions: Table VI microorganisms
Procedure: (§1) The higher alcohols were tested for antimicrobial activity against Gram positive bacteria (Streptococcus mutans), Gram negative bacteria (Pseudomonas spp., Escherichia coli, […]) and the yeast Candida albicans. […] Five microliters of the higher alcohol solutions were placed on the surface of a rich (Brain-heart infusion) agar plate immediately after seeding with a mono-specific bacterial or yeast culture. The plates were incubated for 24-48 hours, and, following further microbial proliferation, the diameters of the zones of growth inhibition were measured (results expressed in centimeters). In a further set of experiments, the effect of solvent type on the antimicrobial activity of the C9 alcohol was investigated. […] These solutions were tested for antimicrobial activity towards three microorganisms (M. lysodeikticus, S. mutans and Corynebacterium xerosis) using the same assay as described above. The relationship of the concentration of the C9 alcohol to its antimicrobial activity was also investigated. […] These solutions were tested in the assay described above for their ability to inhibit the growth of the bacteria M. lysodeikticus and S. mutans.

Pseudomonas aeruginosa = assay: Agar plate zone of growth inhibition; format: cell-based
Procedure: (§2) The higher alcohols were tested for antimicrobial activity against Gram positive bacteria (Streptococcus mutans), Gram negative bacteria (Pseudomonas spp., Escherichia coli, […]) and the yeast Candida albicans. […] Five microliters of the higher alcohol solutions were placed on the surface of a rich (Brain-heart infusion) agar plate immediately after seeding with a mono-specific bacterial or yeast culture. The plates were incubated for 24-48 hours, and, following further microbial proliferation, the diameters of the zones of growth inhibition were measured (results expressed in centimeters).

E. faecalis = assay: Agar plate zone of growth inhibition; format: cell-based
Procedure: as §2

C. albicans = assay: Agar plate zone of growth inhibition; format: cell-based, Candida albicans
Procedure: as §2

E. coli = assay: Agar plate zone of growth inhibition; format: cell-based, Escherichia coli; conditions: for inhibition of E. coli (summary): 1% in 100% ethanol
Procedure: as §2

S. mutans = assay: Agar plate zone of growth inhibition; format: cell-based, Streptococcus mutans; conditions: for inhibition of S. mutans (summary): 1% in 100% ethanol
Procedure: as §1

[3] = 10 μl of 1% solution, scale 0-5
[4] = 20 μl of 1% solution, scale 0-5
[5] = 30 μl of 1% solution, scale 0-5
[6] = 40 μl of 1% solution, scale 0-5
[7] = 50 μl of 1% solution (C8-C12 in 70% ethanol, C14-C18 in 100% ethanol) in 5 ml medium + 200 μl saliva, 3 days 37° C., scale 0 no odor to 5 extremely foul
[8] = 50 μl of 1% solution, scale 0-5
[9] = 5 μl of 0.1% solution in 70% ethanol
[10] = 5 μl of 1% solution (C8-C12 in 70% ethanol, C14-C18 in 100% ethanol)
[11] = 70% ethanol alone, 100 μl, scale 0-5
[12] = 70% ethanol alone, 200 μl, scale 0-5

Row | Structure (SMILES) | Odor Score (Judge 1) [1, 3] | Odor Score (Judge 2) [1, 3] | Odor Score (Judge 1) [1, 4] | Odor Score (Judge 2) [1, 4] | Odor Score (Judge 1) [1, 5] | Odor Score (Judge 2) [1, 5] | Odor Score (Judge 1) [1, 6] | Odor Score (Judge 2) [1, 6] | Odor Score (Judge 1) [1, 7] | Odor Score (Judge 2) [1, 8] | effect on microbial growth (summary) [2] | diameter of zone of growth inhibition, Pseudomonas aeruginosa (Pseudomonas aeruginosa; [9]) | diameter of zone of growth inhibition, Pseudomonas aeruginosa (Pseudomonas aeruginosa; [10]) | diameter of zone of growth inhibition, C. albicans (C. albicans; [9]) | diameter of zone of growth inhibition, E. coli (E. coli; [9]) | diameter of zone of growth inhibition, E. coli (E. coli; [10]) | diameter of zone of growth inhibition, S. mutans (S. mutans; [10]) | also measured
1 | CCCCCCCCCCCO [C11, 1-undecanol] | 5 | 5 | 0 | 0.5 | 0 | 0 | 0 | 0 | 0 | 0 | inhibit microbial growth | 0.4 centimeters | 0.7 centimeters | 0.7 centimeters | 0.7 centimeters | 0.7 centimeters |  | effect on in vitro odor formation (summary) [1]: inhibition of odor formation; diameter of zone of growth inhibition, E. faecalis (E. faecalis; [9]): 1.0 centimeters; diameter of zone of growth inhibition, C. albicans (C. albicans; [10]): 0.8 centimeters
2 | CCCCCCCCO [C8] | 4 | 3 | 3 | 3 | 3 | 3 | 4 | 3 | 4 | 4 |  |  | 0.5 centimeters |  |  |  |  | diameter of zone of growth inhibition, E. faecalis (E. faecalis; [10]): + −; inhibition of the yeast C. albicans (summary) (C. albicans; opaque inhibition zone on the agar plate): only partial inhibition
3 | CCCCCCCCCCCCCCCCO [C16] | 5 | 5 | 5 | 5 | 5 | 5 | 5 | 5 | 4 | 4 |  |  |  |  |  | 0.7 centimeters | + − | inhibition of S. mutans (summary) (S. mutans): not of S. mutans; inhibition of E. coli (summary) (E. coli): moderate inhibition
4 | CCCCCCCCCCCCO [C12] | 5 | 5 | 4 | 4 | 3 | 3 | 2 | 3 | 2 | 3.5 | inhibit microbial growth | + − | + − | 0.6 centimeters | 0.6 centimeters |  |  | diameter of zone of growth inhibition, E. faecalis (E. faecalis; [10]): 0.7 centimeters
5 | CCCCCCCCCCCCCCO [C14] | 5 | 5 | 5 | 5 | 5 | 5 | 5 | 5 | 4 | 4 | inhibit microbial growth |  |  |  |  | 0.9 centimeters | 1.0 centimeters | 
6 | CCCCCCCCCCCCCCCCCCO [C18] | 5 | 5 | 5 | 5 | 5 | 5 | 4 | 4 | 3.5 | 4 |  |  |  |  |  | 0.8 centimeters | + − | inhibition of S. mutans (summary) (S. mutans): not of S. mutans; inhibition of E. coli (summary) (E. coli): moderate inhibition
7 | CCCCCCCCCCO [C10, 1-decanol] | 4 | 4 | 0 | 0 | 0 | 0 | 0 | 0 | 0 | 0 | inhibit microbial growth | 0.8 centimeters | 0.8 centimeters | 0.7 centimeters | 0.8 centimeters | 0.7 centimeters |  | effect on in vitro odor formation (summary) [1]: inhibition of odor formation; diameter of zone of growth inhibition, E. faecalis (E. faecalis; [9]): 0.9 centimeters; diameter of zone of growth inhibition, C. albicans (C. albicans; [10]): 0.8 centimeters
8 | CCCCCCCCCCCCCCCC[n+]1ccccc1 [CPC, cetylpyridinium chloride, reference compound] | 2 | 2.5 | 0 | 0 |  |  |  |  |  |  |  |  |  |  |  |  |  | Odor Score (Judge 1) ([1]; 5 μl of 1% solution, scale 0-5): 4; Odor Score (Judge 2) ([1]; 5 μl of 1% solution, scale 0-5): 4
9 | N=C(NCCCCCCNC(=N)NC(=N)Nc1ccc(Cl)cc1)NC(=N)Nc1ccc(Cl)cc1.O=C(O)[C@H](O)[C@@H](O)[C@H](O)[C@H](O)CO.O=C(O)[C@H](O)[C@@H](O)[C@H](O)[C@H](O)CO [CHX, chlorhexidine digluconate, reference compound] | 2 | 1 | 0 | 0 | 0 | 0 | 0 | 0 |  |  |  |  |  |  |  |  |  | Odor Score (Judge 1) ([1]; 5 μl of 1% solution, scale 0-5): 4; Odor Score (Judge 2) ([1]; 5 μl of 1% solution, scale 0-5): 4.5
10 | CCO [Ethanol, ethanol, reference compound] |  |  |  |  |  |  |  |  |  |  |  |  |  |  |  |  |  | Odor Score (Judge 1) [1, 11]: 5; Odor Score (Judge 2) [1, 11]: 4.5; Odor Score (Judge 1) [1, 12]: 4; Odor Score (Judge 2) [1, 12]: 4.5; diameter of zone of growth inhibition, Pseudomonas aeruginosa (Pseudomonas aeruginosa; 5 μl of 70% Ethanol alone): + −; diameter of zone of growth inhibition, S. mutans (S. mutans; 5 μl of 100% Ethanol alone): + −; diameter of zone of growth inhibition, E. coli (E. coli; 5 μl of 100% Ethanol alone): 1.0 centimeters
